21 molecules from patent US10000507B2, “Furo- and thieno-pyridine carboxamide compounds useful as pim kinase inhibitors” (Incyte Corporation, priority 2013, dated 2018) can be followed below.

SMILES strings stand for the structures.

Common to all, as to type: biochemical
In assay [1] the target is Pim-1 (Homo sapiens (Human), UniProt P11309). The assay is described as follows: Pim-1 kinase assay. The note with it: 1 mM ATP, biotin-labeled BAD peptide substrate; read-out: Pim1 IC50. The method, boiled down:
(§1)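 Biotin-BAD peptide ([…]) phosphorylated with 1 mM ATP by 2.5 pM Pim-1 or 1.25 pM Pim-3, 1 h at 25 °C in Tris pH 7.5, MgCl2, DTT buffer. EDTA stop with anti-phospho-BAD (Ser112) antibody and AlphaScreen streptavidin donor/Protein-A acceptor beads; signal read after 1 h dark incubation.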

The target of assay [2] is Pim-2 (Homo sapiens (Human), UniProt Q9P1W9). Description: Pim-2 kinase assay. The settings on record: 1 mM ATP, fluorescein-labeled CREBtide peptide substrate; read-out: Pim2 IC50. The method, boiled down: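 TR-FRET assay: 1 nM Pim-2 with 0.05 μM fluorescein-CREBtide and 1 mM ATP in Tris pH 7.5, 5 mM MgCl2, 5 mM DTT, 2 h at 25 °C. EDTA stop, then Tb-anti-pCREB Ser133 antibody for 30 min before reading.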
Sequence of Pim-2 (Q9P1W9 whole entry): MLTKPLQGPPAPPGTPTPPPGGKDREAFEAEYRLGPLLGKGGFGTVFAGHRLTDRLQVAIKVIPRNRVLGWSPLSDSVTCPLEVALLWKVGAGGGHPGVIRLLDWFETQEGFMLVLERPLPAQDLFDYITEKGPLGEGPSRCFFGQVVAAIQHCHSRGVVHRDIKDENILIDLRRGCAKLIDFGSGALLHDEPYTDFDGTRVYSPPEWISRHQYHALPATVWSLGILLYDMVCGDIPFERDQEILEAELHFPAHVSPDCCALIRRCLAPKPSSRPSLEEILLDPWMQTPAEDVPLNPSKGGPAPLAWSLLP

The target in assay [3] is Pim-3 (Homo sapiens (Human), UniProt Q86V86). The assay is described as follows: Pim-3 kinase assay. The note with it: 1 mM ATP, biotin-labeled BAD peptide substrate; read-out: Pim3 IC50. In a few lines: as §1

Sequence of Pim-1 (P11309 whole entry): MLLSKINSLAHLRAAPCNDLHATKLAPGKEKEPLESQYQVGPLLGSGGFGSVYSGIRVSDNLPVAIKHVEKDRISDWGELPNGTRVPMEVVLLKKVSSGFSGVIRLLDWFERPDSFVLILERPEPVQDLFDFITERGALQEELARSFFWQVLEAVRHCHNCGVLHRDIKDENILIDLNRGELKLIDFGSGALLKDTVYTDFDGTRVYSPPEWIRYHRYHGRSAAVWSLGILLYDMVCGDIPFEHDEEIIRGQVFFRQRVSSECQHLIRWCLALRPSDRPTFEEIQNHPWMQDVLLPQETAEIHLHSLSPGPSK

Take `Nc1oc2cc(CN3CC(F)C3)cnc2c1C(=O)Nc1cnccc1N1C[C@@H](N)C[C@@H](C(F)(F)F)C1` [Example 99, 2-Amino-N-{4-[(3S,5R)-3-amino-5-(trifluoromethyl)piperidin-1-yl]pyridin-3-yl}-6-[(3-fluoroazetidin-1-yl)methyl]furo[3,2-b]pyridine-3-carboxamide]: the results for the IC50 in assay [1], in assay [2] and in assay [3] were not above 10 nM, 10 to 100 nM and not above 10 nM, respectively.
Turning to `Nc1oc2cc(CN3CC(F)(F)C3)cnc2c1C(=O)Nc1cnccc1N1C[C@@H](N)C[C@@H](C(F)(F)F)C1` [Example 100, 2-Amino-N-{4-[(3S,5R)-3-amino-5-(trifluoromethyl)piperidin-1-yl]pyridin-3-yl}-6-[(3,3-difluoroazetidin-1-yl)methyl]furo[3,2-b]pyridine-3-carboxamide], the IC50 (usually the concentration needed to halve the response being measured) in assay [1] is not above 10 nM; in assay [2] it was 10 to 100 nM; in assay [3], not above 10 nM.
`Nc1oc2cc(CN3CC(O)C3)cnc2c1C(=O)Nc1cnccc1N1C[C@@H](N)C[C@@H](C(F)(F)F)C1` [Example 101, 2-Amino-N-{4-[(3S,5R)-3-amino-5-(trifluoromethyl)piperidin-1-yl]pyridin-3-yl}-6-[(3-hydroxyazetidin-1-yl)methyl]furo[3,2-b]pyridine-3-carboxamide]: the IC50 is not above 10 nM in assay [1], 10 to 100 nM in assay [2] and not above 10 nM in assay [3].
In the case of `CC(C)c1cnc2c(C(=O)Nc3cnccc3N3C[C@@H](N)[C@@H](n4ccnn4)[C@@H](C)C3)c(N)oc2c1` [Example 102, 2-Amino-N-{4-[(3R,4S,5S)-3-amino-5-methyl-4-(1H-1,2,3-triazol-1-yl)piperidin-1-yl]pyridin-3-yl}-6-isopropylfuro[3,2-b]pyridine-3-carboxamide], the IC50 in assay [1] was not above 10 nM; in assay [2] it was 10 to 100 nM; in assay [3], not above 10 nM.
For the molecule `COC1CCN(Cc2cnc3c(C(=O)Nc4cnccc4N4C[C@@H](N)C[C@@H](C(F)(F)F)C4)c(N)oc3c2)C1` (stereo partly drawn) [Example 103, 2-Amino-N-{4-[(3S,5R)-3-amino-5-(trifluoromethyl)piperidin-1-yl]pyridin-3-yl}-6-[(3-methoxypyrrolidin-1-yl)methyl]furo[3,2-b]pyridine-3-carboxamide], the IC50 was not above 10 nM in assay [1], 10 to 100 nM in assay [2] and not above 10 nM in assay [3].
Consider `CCOC1CCN(Cc2cnc3c(C(=O)Nc4cnccc4N4C[C@@H](N)C[C@@H](C(F)(F)F)C4)c(N)oc3c2)C1` (stereo partly drawn) [Example 104, 2-Amino-N-{4-[(3S,5R)-3-amino-5-(trifluoromethyl)piperidin-1-yl]pyridin-3-yl}-6-[(3-ethoxypyrrolidin-1-yl)methyl]furo[3,2-b]pyridine-3-carboxamide], for which the figures for the IC50 in assay [1], in assay [2] and in assay [3] were not above 10 nM, 10 to 100 nM and not above 10 nM, respectively.
Take `Nc1oc2cc(CN3CC[C@@H](F)C3)cnc2c1C(=O)Nc1cnccc1N1C[C@@H](N)C[C@@H](C(F)(F)F)C1` [Example 105, 2-Amino-N-{4-[(3S,5R)-3-amino-5-(trifluoromethyl)piperidin-1-yl]pyridin-3-yl}-6-{[(3R)-3-fluoropyrrolidin-1-yl]methyl}furo[3,2-b]pyridine-3-carboxamide]: the figures for the IC50 in assay [1], in assay [2] and in assay [3] were not above 10 nM, 10 to 100 nM and not above 10 nM, respectively.
Turning to `Nc1oc2cc(CN3CC[C@H](F)C3)cnc2c1C(=O)Nc1cnccc1N1C[C@@H](N)C[C@@H](C(F)(F)F)C1` [Example 106, 2-Amino-N-{4-[(3S,5R)-3-amino-5-(trifluoromethyl)piperidin-1-yl]pyridin-3-yl}-6-{[(3S)-3-fluoropyrrolidin-1-yl]methyl}furo[3,2-b]pyridine-3-carboxamide], the IC50 was not above 10 nM in assay [1], 10 to 100 nM in assay [2] and not above 10 nM in assay [3].
On to `COC1CCN(Cc2cnc3c(C(=O)Nc4cnccc4N4C[C@@H](N)C[C@@H](C(F)(F)F)C4)c(N)oc3c2)CC1` [Example 107, 2-Amino-N-{4-[(3S,5R)-3-amino-5-(trifluoromethyl)piperidin-1-yl]pyridin-3-yl}-6-[(4-methoxypiperidin-1-yl)methyl]furo[3,2-b]pyridine-3-carboxamide], for which the IC50 in assay [1] was not above 10 nM; in assay [2], 10 to 100 nM; in assay [3], not above 10 nM.
For the molecule `CN1CCN(Cc2cnc3c(C(=O)Nc4cnccc4N4C[C@@H](N)C[C@@H](C(F)(F)F)C4)c(N)oc3c2)CC1` [Example 108, 2-Amino-N-{4-[(3S,5R)-3-amino-5-(trifluoromethyl)piperidin-1-yl]pyridin-3-yl}-6-[(4-methylpiperazin-1-yl)methyl]furo[3,2-b]pyridine-3-carboxamide], the values for the IC50 in assay [1], in assay [2] and in assay [3] were not above 10 nM, 10 to 100 nM and not above 10 nM, respectively.
In the case of `Cn1cc(-c2cnc3c(C(=O)Nc4cnccc4N4C[C@@H](N)C[C@@H](C(F)(F)F)C4)c(N)oc3c2)cn1` [Example 109, 2-Amino-N-{4-[(3S,5R)-3-amino-5-(trifluoromethyl)piperidin-1-yl]pyridin-3-yl}-6-(1-methyl-1H-pyrazol-4-yl)furo[3,2-b]pyridine-3-carboxamide], the IC50 was not above 10 nM in assay [1], 10 to 100 nM in assay [2] and not above 10 nM in assay [3].
Turning to `C[C@@H]1C[C@H](N)CN(c2ccncc2NC(=O)c2c(N)oc3cc(-c4cnn(C)c4)cnc23)C1` [Example 110, 2-Amino-N-{4-[(3S,5R)-3-amino-5-methylpiperidin-1-yl]pyridin-3-yl}-6-(1-methyl-1H-pyrazol-4-yl)furo[3,2-b]pyridine-3-carboxamide], the IC50 is not above 10 nM in assay [1], 10 to 100 nM in assay [2] and not above 10 nM in assay [3].
Take `Nc1oc2cc(-c3cncnc3)cnc2c1C(=O)Nc1cnccc1N1C[C@@H](N)C[C@@H](C(F)(F)F)C1` [Example 111, 2-Amino-N-{4-[(3S,5R)-3-amino-5-(trifluoromethyl)piperidin-1-yl]pyridin-3-yl}-6-pyrimidin-5-ylfuro[3,2-b]pyridine-3-carboxamide]: the IC50 was not above 10 nM in assay [1], 10 to 100 nM in assay [2] and not above 10 nM in assay [3].
On to `C[C@@H]1C[C@H](N)CN(c2ccncc2NC(=O)c2c(N)oc3cc(-c4cncnc4)cnc23)C1` [Example 112, 2-Amino-N-{4-[(3S,5R)-3-amino-5-methylpiperidin-1-yl]pyridin-3-yl}-6-pyrimidin-5-ylfuro[3,2-b]pyridine-3-carboxamide], for which the IC50 in assay [1] was not above 10 nM; in assay [2], 10 to 100 nM; in assay [3], not above 10 nM.
`Nc1oc2cc(C3CC3)cnc2c1C(=O)Nc1cnccc1N1C[C@@H](N)C[C@@H](C(F)(F)F)C1` [Example 113, 2-Amino-N-{4-[(3S,5R)-3-amino-5-(trifluoromethyl)piperidin-1-yl]pyridin-3-yl}-6-cyclopropylfuro[3,2-b]pyridine-3-carboxamide]: the IC50 in assay [1], in assay [2] and in assay [3] was not above 10 nM each time.
Regarding `C[C@@H]1C[C@H](N)CN(c2ccncc2NC(=O)c2c(N)oc3cc(C4CC4)cnc23)C1` [Example 114, 2-Amino-N-{4-[(3S,5R)-3-amino-5-methylpiperidin-1-yl]pyridin-3-yl}-6-cyclopropylfuro[3,2-b]pyridine-3-carboxamide], the IC50 in assay [1], in assay [2] and in assay [3] was not above 10 nM each time.
For `Cc1cnc2c(C(=O)Nc3cnccc3N3C[C@@H](N)C[C@@H](C(F)(F)F)C3)c(N)oc2c1` [Example 115, 2-Amino-N-{4-[(3S,5R)-3-amino-5-(trifluoromethyl)piperidin-1-yl]pyridin-3-yl}-6-methylfuro[3,2-b]pyridine-3-carboxamide], the IC50 in assay [1], in assay [2] and in assay [3] was not above 10 nM throughout.
`Cc1cnc2c(C(=O)Nc3cnccc3N3C[C@H](C)C[C@H](N)C3)c(N)oc2c1` [Example 116, 2-Amino-N-{4-[(3S,5R)-3-amino-5-methylpiperidin-1-yl]pyridin-3-yl}-6-methylfuro[3,2-b]pyridine-3-carboxamide]: the results for the IC50 in assay [1], in assay [2] and in assay [3] were not above 10 nM, 10 to 100 nM and not above 10 nM, respectively.
`CCc1cnc2c(C(=O)Nc3cnccc3N3C[C@H](C)C[C@H](N)C3)c(N)oc2c1` [Example 117, 2-Amino-N-{4-[(3S,5R)-3-amino-5-methylpiperidin-1-yl]pyridin-3-yl}-6-ethylfuro[3,2-b]pyridine-3-carboxamide]: the IC50 in assay [1], in assay [2] and in assay [3] was not above 10 nM each time.
For the molecule `CCc1cnc2c(C(=O)Nc3cnccc3N3C[C@@H](N)C[C@@H](C(F)(F)F)C3)c(N)oc2c1` [Example 118, 2-Amino-N-{4-[(3S,5R)-3-amino-5-(trifluoromethyl)piperidin-1-yl]pyridin-3-yl}-6-ethylfuro[3,2-b]pyridine-3-carboxamide], the IC50 in assay [1], in assay [2] and in assay [3] was not above 10 nM in each case.
Take `C[C@@H]1C[C@H](N)CN(c2ccncc2NC(=O)c2c(N)oc3cc(-c4c(F)cccc4F)cnc23)C1` [Example 119, 2-Amino-N-{4-[(3S,5R)-3-amino-5-methylpiperidin-1-yl]pyridin-3-yl}-6-(2,6-difluorophenyl)furo[3,2-b]pyridine-3-carboxamide]: the IC50 in assay [1] was not above 10 nM; in assay [2], 10 to 100 nM; in assay [3], not above 10 nM.
